From patent US20170334941A1, “2',2'-DIHALO NUCLEOSIDE ANALOGS FOR TREATMENT OF THE FLAVIVIRIDAE FAMILY OF VIRUSES AND CANCER” (COCRYSTAL PHARMA, INC., priority 2014, published 2017) come the findings set out here.

Series [1] concerns HCV GT 1b replicon (Huh-7 cells). The experiment in a line: HCV replicon assay. To be noted: Hepatitis C virus, GT1B. Format: cell-based. The procedure: (§1) The HCV replicon assay was carried out as described in Stuyver L et al., Ribonucleoside analogue that blocks replication or bovine viral diarrhea and hepatitis C viruses in culture. Antimicrob. Agents Chemother. 2003, 47, 244-254. Huh 7 Clone B cells containing HCV Replicon RNA were seeded in a 96-well plate at 5000 cells/well, and the compounds tested at 10 μM in triplicate immediately after seeding. Following five days incubation (37° C., 5% CO2), total cellular RNA was isolated by using versaGene RNA purification kit from Gentra. Replicon RNA and an internal control (TaqMan rRNA control reagents, Applied Biosystems) were amplified in a single step multiplex Real Time RT-PCR Assay. The antiviral effectiveness of the compounds was calculated by subtracting the threshold RT-PCR cycle of the test compound from the threshold RT-PCR cycle of the no-drug control (ΔCt HCV). A ACt of 3.3 equals a 1-log reduction (equal to 90% less starting material) in Replicon RNA levels. The cytotoxicity of the compounds was also calculated by using the ΔCt rRNA values. 2′-C-Me-C was used as the positive control. To determine EC90 and IC50 values (using methods described in Reed I J & Muench H, A simple method or estimating fifty percent endpoints. Am. J. Hyg. 27: 497, 1938), ΔCt: values were first converted into fraction of starting material (Applied Biosystems Handbook) and then were used to calculate the % inhibition.
Background: In antiviral work, replicon cells carry a viral genome segment that copies itself.

Series [2] relates to CEM (human lymphoblastoid) cells. The experiment in a line: Cellular toxicity assay in CEM cells. It is filed as cell-based. The procedure: (§2) The toxicity of the compounds was assessed in Vero, human PBM, CEM (human lymphoblastoid), MT-2, and HepG2 cells, as described previously (see Schinazi R. F., Sommadossi J.-P., Saalmann V., Cannon D. L., Xie M.-Y., Hart G. C., Smith G. A. & Hahn E. F. Antimicrob. Agents Chemother. 1990, 34, 1061-67). Cycloheximide was included as positive cytotoxic control, and untreated cells exposed to solvent were included as negative controls. The cytotoxicity IC50 was obtained from the concentration-response curve using the median effective method described previously (see Chou T.-C. & Talalay P. Adv. Enzyme Regul. 1984, 22, 27-55; Belen'kii M. S. & Schinazi R. F. Antiviral Res. 1994, 25, 1-11).

Series [3] can be described thus: Cellular toxicity assay in CEM cells. Format: cell-based, human. To be noted: human, read-out: Cytotoxicity, CC50. The procedure: as §2
Series [4] can be described thus: Cytotoxicity in HCV replicon assay (ΔCt rRNA). Format: cell-based. The note with it: human, Huh-7 Clone B cells containing HCV GT 1b replicon RNA, Huh-7 cells. The procedure: as §1, with “To determine EC90 and IC50 values (using methods described in Reed I J & Muench H, A simple method or estimating fifty percent endpoints. Am. J. Hyg. 27: 497, 1938), ΔCt: values were first converted into fraction of starting material (Applied Biosystems Handbook) and then were used to calculate the % inhibition.” left out

Another series deals with human PBM cells. In words: Cellular toxicity assay in human PBM cells. Format: cell-based. The note with it: Human PBM cells. The procedure:
as §2

Series [5] is described as follows: Cellular toxicity assay in human PBM cells. Format: cell-based. The note with it: read-out: Cytotoxicity, CC50. The procedure:
as §2

The subject of another series is Vero cells. In words: Cellular toxicity assay in Vero cells. It is filed as cell-based. The procedure: as §2
A short description of series [6]: Cellular toxicity assay in Vero cells. It is filed as cell-based. The note with it: African green monkey, read-out: Cytotoxicity, CC50. The procedure:
as §2

Read-outs that look alike come from different tables or passages of the source.

Turning to `Nc1ccn([C@@H]2O[C@H](CO)[C@@H](O)C2(Cl)Cl)c(=O)n1` [Compound 22, 4-amino-1-((2R,4R,5R)-3,3-dichloro-4-hydroxy-5-(hydroxymethyl)tetrahydrofuran-2-yl)pyrimidin-2(1H)-one], the EC50 in series [1] (HCV GT 1b replicon, Huh-7 cells, read-out: EC50) is greater than 10 µM. In addition, in series [1] (HCV GT 1b replicon, Huh-7 cells, read-out: EC90), the EC90 is greater than 10 µM. Besides, the “% inhibition at maximum concentration evaluated” value (“% inhibition” for short) in series [2] came to 87%; in the series on human PBM cells it was 82%; in the series with Vero cells it was 101%. The CC50 in series [3] (CEM lymphoblastoid cells) was less than 1 µM; in series [5] (human, human PBM cells) it was less than 1 µM; in series [6] it was less than 1 µM. In series [4], this compound displayed a CC50 at 5 days greater than 10 µM.
Take `CC(C)OC(=O)[C@H](C)NP(=O)(OC[C@H]1O[C@@H](n2ccc(=O)[nH]c2=O)C(Cl)(Cl)[C@@H]1O)Oc1ccccc1` (stereo partly drawn) [Compound 18, (2S)-isopropyl 2-(((((2R,3R,5R)-4,4-dichloro-5-(2,4-dioxo-3,4-dihydropyrimidin-1(2H)-yl)-3-hydroxytetrahydrofuran-2-yl)methoxy)(phenoxy)phosphoryl)amino)propanoate]: the “% inhibition” value came out at 17% in series [2], 25% with human PBM cells and 2.3% in the series with Vero cells. The CC50 in series [3], in series [5] (Human PBM cells) and in series [6] was greater than 100 µM each time.
Turning to `O=c1ccn(C2OC(CO)C(O)C2(Cl)Cl)c(=O)[nH]1` (centres unmarked) [Compound 17], the “% inhibition” value in series [2] is on record as −1.9%; with human PBM cells it was −11%; in the series with Vero cells, 1.4%. Further, the CC50 was greater than 100 µM in series [2] (read-out: Cytotoxicity, CC50); greater than 100 µM in the series with human PBM cells (read-out: Cytotoxicity, CC50); greater than 100 µM with Vero cells (read-out: Cytotoxicity, CC50).
`CC(C)OC(=O)[C@H](C)NP(=O)(OC[C@H]1O[C@@H](n2ccc(N)nc2=O)C(Cl)(Cl)[C@@H]1O)Oc1ccccc1` (stereo partly drawn) [Compound 23, (2S)-isopropyl 2-(((((2R,3R,5R)-5-(4-amino-2-oxopyrimidin-1(2H)-yl)-4,4-dichloro-3-hydroxytetrahydrofuran-2-yl)methoxy)(phenoxy)phosphoryl)amino)propanoate] yielded an EC50 in series [1] (Huh-7) of 0.1 to 1 µM. The compound also gave an EC90 in series [1] (Huh-7) of 0.1 to 1 µM. Besides, the figures for the “% inhibition” value (in series [2]; in the series with human PBM cells; with Vero cells) were “(−86 @ 100) %”, 91% and 101%, respectively. This compound had a CC50 at 5 days in series [4] greater than 10 µM. The CC50 in series [5] (Human PBM cells) and in series [6] was less than 1 µM throughout.

What is called EC50 is the concentration at which the effect is half-maximal. One may read the EC90 as the point of the concentration-response curve where the effect stands at 90%. For orientation: % inhibition means the change of the read-out against control, counted positive when it falls. A word on the CC50: it is the concentration at which the toxic effect on the cells reaches its halfway point.
